Assay results published in US11414416B1, “Compounds and uses thereof” (Foghorn Therapeutics Inc., priority 2019, dated 2022).

biological target: Nanoluciferase-BRD9 fusion protein (Homo sapiens (Human), UniProt Q9H8M2); test: SYO1 BRD9 NanoLuc degradation assay; format: cell-based; conditions: Table 5A; SYO-1 cells expressing 3×FLAG-NLuc-BRD9, 6 hours
Outline: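 Degradation was read as loss of nanoluciferase signal (Nano-Glo) after 6 h compound exposure in a stable SYO-1 line carrying 3×FLAG-NLuc-BRD9 (8000 cells/well). Normalised between DMSO (high) and a 1 μM known BRD9 degrader (low).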

Sequence of Nanoluciferase-BRD9 fusion protein (Q9H8M2 whole entry, the tested form may be a part): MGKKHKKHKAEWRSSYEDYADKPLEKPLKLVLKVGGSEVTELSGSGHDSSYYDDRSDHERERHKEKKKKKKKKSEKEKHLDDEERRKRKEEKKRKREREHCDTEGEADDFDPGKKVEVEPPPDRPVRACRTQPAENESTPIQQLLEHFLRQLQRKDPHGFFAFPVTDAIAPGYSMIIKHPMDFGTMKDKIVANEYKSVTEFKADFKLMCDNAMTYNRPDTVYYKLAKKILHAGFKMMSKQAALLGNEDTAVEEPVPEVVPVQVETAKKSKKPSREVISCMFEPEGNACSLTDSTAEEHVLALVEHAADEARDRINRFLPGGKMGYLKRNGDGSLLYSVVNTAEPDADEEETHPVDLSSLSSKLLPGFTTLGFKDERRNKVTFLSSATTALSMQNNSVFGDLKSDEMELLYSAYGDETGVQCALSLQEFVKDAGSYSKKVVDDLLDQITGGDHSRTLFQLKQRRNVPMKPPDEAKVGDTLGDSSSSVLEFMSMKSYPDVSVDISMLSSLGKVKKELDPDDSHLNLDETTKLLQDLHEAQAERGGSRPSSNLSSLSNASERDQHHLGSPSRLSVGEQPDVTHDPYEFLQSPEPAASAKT

IC50 [nM] | SMILES
10 to 100 | COc1cc(-c2cn(C)c(=O)c3cnccc23)cc(OC)c1CN1CC2(CCN(C(=O)CCOCCOc3cccc4c3C(=O)N(C3CCC(=O)NC3=O)C4=O)C2)C1 (stereo not drawn) [Compound D90]

same assay, conditions: Table 5A; SYO-1 cells expressing 3×FLAG-NLuc-BRD9, 6 hours; read-out: SYO1 BRD9-NanoLuc degradation IC50

DC50 [nM] | SMILES
< 10 | COc1cc(-c2cn(C)c(=O)c3cnccc23)cc(OC)c1CN1CC2(C1)CN(C(=O)C#Cc1ccc3c(c1)C(=O)N(C1CCC(=O)NC1=O)C3=O)C2 (stereo not drawn) [Compound D81]
< 10 | COc1cc(-c2cn(C)c(=O)c3cnccc23)cc(OC)c1CN1CC(N)(C(=O)NCCCCCCCCNc2cccc3c2C(=O)N(C2CCC(=O)NC2=O)C3=O)C1 (stereo not drawn) [Compound D17, 3-amino-1-[[2,6-dimethoxy-4-(2-methyl-1-oxo-1,2-dihydro-2,7-naphthyridin-4-yl)phenyl]methyl]-N-(8-[[2-(2,6-dioxopiperidin-3-yl)-1,3-dioxo-2,3-dihydro-1H-isoindol-4-yl]amino]octyl)azetidine-3-carboxamide]
100 to 1000 | COc1cc(-c2cn(C)c(=O)c3cnccc23)cc(OC)c1CN1CC(N(C)Cc2cccc3c2C(=O)N(C2CCC(=O)NC2=O)C3=O)C1 (stereo not drawn) [Compound D28, 4-(((1-(2,6-dimethoxy-4-(2-methyl-1-oxo-1,2-dihydro-2,7-naphthyridin-4-yl)benzyl)azetidin-3-yl)(methyl)amino)methyl)-2-(2,6-dioxopiperidin-3-yl)isoindoline-1,3-dione]
100 to 1000 | COc1cc(-c2cn(C)c(=O)c3cnccc23)cc(OC)c1CN1CC(CC(=O)N2CC3(CCC(Oc4ccc5c(c4)C(=O)N(C4CCC(=O)NC4=O)C5=O)C3)C2)C1 (stereo not drawn) [Compound D79]
> 1000 | COc1cc(-c2cn(C)c(=O)c3cnccc23)cc(OC)c1CN1CC2(CC(C(=O)NCCCCCCNc3cccc4c3C(=O)N(C3CCC(=O)NC3=O)C4=O)C2)C1 (stereo not drawn) [Compound D21]

SMILES | DC50 [nM]
COc1cc(-c2cn(C)c(=O)c3cnccc23)cc(OC)c1CN1CCC(CCN2CCN(c3ccc4c(c3)C(=O)N(C3CCC(=O)NC3=O)C4=O)CC2)CC1 (stereo not drawn) [Compound D42, 5-(4-(2-(1-(2,6-dimethoxy-4-(2-methyl-1-oxo-1,2-dihydro-2,7-naphthyridin-4-yl)benzyl)piperidin-4-yl)ethyl)piperazin-1-yl)-2-(2,6-dioxopiperidin-3-yl)isoindoline-1,3-dione formic acid] | < 10

same assay, conditions: Table 5B; SYO-1 cells expressing 3×FLAG-NLuc-BRD9, 6 hours; read-out: SYO1 BRD9-NanoLuc degradation IC50

DC50 [nM] | SMILES
< 10 | COc1cc(-c2cn(C)c(=O)c3cnccc23)cc(OC)c1CN1CCC(n2cc(CN3CC(Oc4ccc5c(c4)C(=O)N(C4CCC(=O)NC4=O)C5=O)C3)nn2)CC1 (stereo not drawn) [Compound D280]
< 10 | COc1cc(-c2cc(C)c(=O)n(C)c2)cc(OC)c1CN1CCC2CN(c3ccc4c(c3)C(=O)N(C3CCC(=O)NC3=O)C4=O)C21 (stereo not drawn) [Compound D339]
100 to 1000 | COc1cc(-c2cn(C)c(=O)c3cnccc23)cc(OC)c1CN(C)CCOCCn1cc(COC2CN(c3ccc4c(c3)C(=O)N(C3CCC(=O)NC3=O)C4=O)C2)nn1 (stereo not drawn) [Compound D295]
10 to 100 | COc1cc(-c2cn(C)c(=O)c3cnccc23)cc(OC)c1CN1CC2(CCN(CCCC#Cc3ccc4c(c3)C(=O)N(C3CCC(=O)NC3=O)C4=O)CC2)C1 (stereo not drawn) [Compound D212]
< 10 | COc1cc(-c2cn(C)c(=O)c3cnccc23)cc(OC)c1CN1CCC2(CCC(C(=O)CCC#Cc3ccc4c(c3)C(=O)N(C3CCC(=O)NC3=O)C4=O)C2)CC1 (stereo not drawn) [Compound D220]
< 10 | COc1cc(-c2cn(C)c(=O)c3cnn(C)c23)cc(OC)c1CN1CC(CN2CCC3(CC2)CN(c2ccc4c(c2)CN(C2CCC(=O)NC2=O)C4=O)C3)C1 (stereo not drawn) [Compound D369]
< 10 | COc1cc(-c2cn(C)c(=O)c3cnccc23)cc(OC)c1CN(C)C(=O)CCCCN1CCC2(CC1)CC(Oc1ccc3c(c1)C(=O)N(C1CCC(=O)NC1=O)C3=O)C2 (stereo not drawn) [Compound D208]

The remaining lines, values behind:

SMILES | DC50 [nM]
COc1cc(-c2cn(C)c(=O)c3cnccc23)cc(OC)c1CN1CCC2(CC1)CN(C(=O)CC#Cc1ccc3c(c1)C(=O)N(C1CCC(=O)NC1=O)C3=O)C2 (stereo not drawn) [Compound D318] | < 10
COc1cc(-c2cn(C)c(=O)c3cnccc23)cc(OC)c1CN(C)CCOCCOCCOCC(=O)N[C@@H](C(=O)N1C[C@@H](O)C[C@@H]1C(=O)NCc1ccc(-c2scnc2C)cc1)C(C)(C)C [DD1] | > 1000
COc1cc(-c2cn(C)c(=O)c3cnccc23)cc(OC)c1CN(C)C1CCN(CCOc2ccc3c(c2)C(=O)N(C2CCC(=O)NC2=O)C3=O)CC1 (stereo not drawn) [Compound D178] | < 10
COc1cc(-c2cn(C)c(=O)c3cnccc23)cc(OC)c1CN1CC(CC(=O)NC2CC3(C2)CN(c2ccc4c(c2)C(=O)N(C2CCC(=O)NC2=O)C4=O)C3)C1 (stereo not drawn) [Compound D194] | < 10
COc1cc(-c2cn(C)c(=O)c3cnccc23)cc(OC)c1CN1CC(CC(=O)N2CCC3(CC(Oc4ccc5c(c4)C(=O)N([C@@H]4CCC(=O)NC4=O)C5=O)C3)C2)C1 (stereo partly drawn) [Compound D266] | 10 to 100
COc1cc(-c2cc(C)c(=O)n(C)n2)cc(OC)c1CN1CCC2(CC1)CN(c1ccc3c(c1)C(=O)N(C1CCC(=O)NC1=O)C3)C2 (stereo not drawn) [Compound D358] | < 10
COc1cc(-c2cc(C#N)c(=O)n(C)c2)cc(OC)c1CN1CC(CN2CCC3(CC2)CN(c2ccc4c(c2)C(=O)N(C2CCC(=O)NC2=O)C4=O)C3)C1 (stereo not drawn) [Compound D352] | > 1000
COc1cc(-c2cn(C)c(=O)c3cnccc23)cc(OC)c1CN1CC(n2cc(COCCOc3ccc4c(c3)C(=O)N(C3CCC(=O)NC3=O)C4=O)nn2)C1 (stereo not drawn) [Compound D299] | < 10
COc1cc(-c2cn(C)c(=O)c3cnccc23)cc(OC)c1CN1CC(CC(=O)N2CC3(CCC(Oc4ccc5c(c4)C(=O)N(C4CCC(=O)NC4=O)C5=O)C3)C2)C1 (stereo not drawn) [Compound D183] | 100 to 1000
COc1cc(-c2cc(C)c(=O)n(C)c2)cc(OC)c1CN1Cc2cc3c(cc2C1)C(=O)N(C1CCC(=O)NC1=O)C3=O (stereo not drawn) [DD9] | < 10
COc1cc(-c2cn(C)c(=O)c3cnccc23)cc(OC)c1CN1CC2(C1)CN(C(=O)CC#Cc1ccc3c(c1)C(=O)N(C1CCC(=O)NC1=O)C3=O)C2 (stereo not drawn) [Compound D317] | 10 to 100
COc1cc(-c2cn(C)c(=O)c3cnccc23)cc(OC)c1CN1CC(CC(=O)N2CC(Oc3ccc4c(c3)C(=O)N(C3CCC(=O)NC3=O)C4=O)C2)C1 (stereo not drawn) [Compound D233] | 100 to 1000
COc1cc(-c2cn(C)c(=O)c3cnccc23)cc(OC)c1CN1CCC(n2cc([C@H](C)Oc3ccc4c(c3)C(=O)N(C3CCC(=O)NC3=O)C4=O)nn2)CC1 (stereo partly drawn) [Compound D320] | < 10
COc1cc(-c2cn(C)c(=O)c3cnccc23)cc(OC)c1CN(C)CCCCN1CCC2(CC1)CCN(c1ccc3c(c1)C(=O)N(C1CCC(=O)NC1=O)C3=O)C2 (stereo not drawn) [Compound D224] | < 10
COc1cc(-c2cn(C)c(=O)c3cnccc23)cc(OC)c1CN(C)CCCn1cc(COC2CN(c3ccc4c(c3)C(=O)N(C3CCC(=O)NC3=O)C4=O)C2)nn1 (stereo not drawn) [Compound D286] | 10 to 100
COc1cc(-c2cn(C)c(=O)c3cnccc23)cc(OC)c1CN(C)CCCCN1CCC2(CC(Oc3ccc4c(c3)C(=O)N(C3CCC(=O)NC3=O)C4=O)C2)C1 (stereo not drawn) [Compound D253] | < 10

same assay, conditions: Table 5C; SYO-1 cells expressing 3×FLAG-NLuc-BRD9, 6 hours

IC50 [nM] | SMILES
< 10 | COc1cc(-c2cc(C)c(=O)n(C)c2)cc(OC)c1CN1CC(C)(C#Cc2ccc3c(c2)C(=O)N(C2CCC(=O)NC2=O)C3)C1 (stereo not drawn) [Compound D450]

same assay, conditions: Table 5C; SYO-1 cells expressing 3×FLAG-NLuc-BRD9, 6 hours; read-out: SYO1 BRD9-NanoLuc degradation IC50

DC50 [nM] | SMILES
< 10 | COc1cc(-c2cc(C(F)F)c(=O)n(C)c2)cc(OC)c1CN1CCC(CN2CCC3(CC2)CN(c2ccc4c(c2)C(=O)N(C2CCC(=O)NC2=O)C4)C3)CC1 (stereo not drawn) [Compound D407]
< 10 | COc1cc(-c2cn(C)c(=O)c3cnccc23)cc(OC)c1CN1CC(Oc2ccc3c(c2)C(=O)N(C2CCC(=O)NC2=O)C3=O)C1C (stereo not drawn) [Compound D376]
> 1000 | COc1cc(-c2cn(C)c(=O)c3cnccc23)cc(OC)c1CN1CCC2(CC1)CN(c1ccc3c(c1)C(=O)N(C1CC(=O)NC1=O)C3=O)C2 (stereo not drawn) [Compound D383]
> 1000 | COc1cc(-c2cn(C)c(=O)c3cnccc23)cc(OC)c1CN1CCC2(CC1)CN(c1nccc(C(=O)NC3CCC(=O)NC3=O)n1)C2 (stereo not drawn) [Compound D472]
< 10 | COc1cc(-c2cn(C)c(=O)c3cnccc23)cc(OC)c1CN1CC(Oc2ccc3c(c2)CN(C2CCC(=O)N(COC(=O)[C@@H](N)C(C)C)C2=O)C3=O)C1 (stereo partly drawn) [Compound D384]

Second part, the compound before the results:

SMILES | DC50 [nM]
COc1cc(-c2cn(C)c(=O)c3cncn23)cc(OC)c1CN1CCC2(CC1)CN(c1ccc3c(c1)C(=O)N(C1CCC(=O)NC1=O)C3)C2 (stereo not drawn) [Compound D428] | < 10
COc1cc(-c2cn(C)c(=O)c3cn(C)nc23)cc(OC)c1CN1CCN(CCC2CCN(c3ccc4c(c3)C(=O)N(C3CCC(=O)NC3=O)C4)CC2)CC1 (stereo not drawn) [Compound D400] | < 10
COc1cc(-c2cc(C)c(=O)n(C)c2)cc(OC)c1CN1CCC(C#Cc2ccc3c(c2)C(=O)N(C2CCC(=O)NC2=O)C3)CC1 (stereo not drawn) [Compound D443] | < 10
COc1cc(-c2cccc3c(=O)n(C)ccc23)cc(OC)c1CN1CCC2(CC1)CN(c1ccc3c(c1)C(=O)N(C1CCC(=O)NC1=O)C3)C2 (stereo not drawn) [DD13] | 10 to 100
COc1cc(-c2cc(C(F)F)c(=O)n(C)c2)cc(OC)c1CN1CCC2(C1)CN(c1ccc3c(c1)CN(C1CCC(=O)NC1=O)C3=O)C2 (stereo not drawn) [Compound D408] | < 10
COc1cc(-c2cn(C)c(=O)c3cn(C)nc23)cc(OC)c1CN1CCC2(CC1)CN(c1ccc3c(c1)CN(C1CCC(=O)NC1=O)C3=O)C2 (stereo not drawn) [Compound D412] | < 10
COc1cc(-c2cn(C)c(=O)c3[nH]cc(C)c23)cc(OC)c1CN1CCC2(CC1)CN(c1ccc3c(c1)C(=O)N(C1CCC(=O)NC1=O)C3=O)C2 (stereo not drawn) [Compound D418] | < 10
COc1cc(-c2cn(C)c(=O)c(C)n2)cc(OC)c1CN1CCC2(CC1)CN(c1ccc3c(c1)C(=O)N(C1CCC(=O)NC1=O)C3)C2 (stereo not drawn) [Compound D461] | 10 to 100
COc1cc(-c2cn(C)c(=O)c3cnccc23)cc(OC)c1CN1CCC2(CC1)CN(c1ccnc(C(=O)NC3CCC(=O)NC3=O)c1)C2 (stereo not drawn) [Compound D471] | < 10
